ChEMBL document CHEMBL5727031, “Metabotropic glutamate receptor negative allosteric modulators (NAMS) and uses thereof” (2018)

Assays:
[1] = (§1) In Vitro GIRK Thallium Flux Assay (2.5 minutes): Human Embryonic Kidney (HEK-293) cell lines co-expressing rat mGlu receptors 2, 3, 4, 6, 7 or 8 and G protein-coupled inwardly-rectifying potassium (GIRK) channels_ENREF_54 were grown in Growth Media containing 45% DMEM, 45% F-12, 10% FBS, 20 mM HEPES, 2 mM L-glutamine, antibiotic/antimycotic, non-essential amino acids, 700 μg/ml G418, and 0.6 μg/ml puromycin at 37° C. in the presence of 5% CO2. All cell culture reagents were purchased from Invitrogen Corp. (Carlsbad, Calif.) unless otherwise noted. Compound activity at the group II (mGlu2 and mGlu3) mGlus was assessed using thallium flux through GIRK channels. Briefly, cells were plated into 384-well, black-walled, clear-bottomed poly-D-lysine-coated plates at a density of 15,000 cells/20 μL/well in DMEM containing 10% dialyzed FBS, 20 mM HEPES, and 100 units/mL penicillin/streptomycin (assay media). Plated cells were incubated overnight at 37° C. in the presence of 5% CO2. The following day, the medium was exchanged from the cells to assay buffer [Hanks' balanced salt solution (Invitrogen) containing 20 mM HEPES, pH 7.3] using an ELX405 microplate washer (BioTek), leaving 20 μL/well, followed by the addition of 20 μL/well FluoZin2-AM (330 nM final concentration) indicator dye (Invitrogen; prepared as a stock in DMSO and mixed in a 1:1 ratio with Pluronic acid F-127) in assay buffer. Cells were incubated for 1 h at room temperature, and the dye exchanged to assay buffer using an ELX405, leaving 20 μL/well. Test compounds were diluted to 2 times their final desired concentration in assay buffer (0.3% DMSO final concentration). Agonists were diluted in thallium buffer [125 mM sodium bicarbonate (added fresh the morning of the experiment), 1 mM magnesium sulfate, 1.8 mM calcium sulfate, 5 mM glucose, 12 mM thallium sulfate, and 10 mM HEPES, pH 7.3] at 5 times the final concentration to be assayed. Cell plates and compound plates were loaded onto a kinetic imaging plate reader (FDSS 6000 or 7000; Hamamatsu Corporation, Bridgewater, N.J.). Appropriate baseline readings were taken (10 images at 1 Hz; excitation, 470±20 nm; emission, 540±30 nm) and test compounds were added in a 20 μL volume and incubated for either 2.5 min or 60 min as indicated before the addition of 10 μL of thallium buffer with or without agonist. After the addition of agonist, data were collected for approximately an additional 2.5 min. Data were analyzed using Excel (Microsoft Corp, Redmond, Wash.). The slope of the fluorescence increase beginning 5 s after thallium/agonist addition and ending 15 s after thallium/agonist addition was calculated, corrected to vehicle and maximal agonist control slope values, and plotted in using either XLfit (ID Business Solutions Ltd) or Prism software (GraphPad Software, San Diego, Calif.) to generate concentration-response curves. Potencies were calculated from fits using a four-point parameter logistic equation. For concentration-response curve experiments, compounds were serially diluted 1:3 into 10 point concentration response curves and were transferred to daughter plates using an Echo acoustic plate reformatter (Labcyte, Sunnyvale, Calif.). Test compounds were applied and followed by EC80 concentrations of glutamate.
[2] = as §1, with “Assay (60” for “Assay (2.5”, “additional 60” for “additional 2.5”
[3] = as §1; remark: listed apart in the source
[4] = as §1, with “Assay (60” for “Assay (2.5”, “additional 60” for “additional 2.5”; remark: listed apart in the source

SMILES	EC50 ([1]; HEK293, 2.5 min)	EC50 ([2]; HEK293, 1 h)	EC50 ([4]; HEK293, 1 h)	also measured
c1ccc(-c2cccc(-c3cc(-c4ccccc4)on3)c2)cc1	> 10 µM	> 30 µM	> 10 µM	EC50 ([3]; HEK293, 2.5 min): > 10 µM
Fc1ccc(-c2cccc(-c3csc(-c4ccc(C(F)(F)F)nc4)n3)c2)cc1	1.35 µM	0.85 µM	2.55 µM	EC50 ([3]; HEK293, 2.5 min): 3.11 µM
Fc1ccc(-c2cccc(-c3csc(-c4cc5ccccc5s4)n3)c2)cc1	> 10 µM	1.92 µM	> 10 µM	EC50 ([3]; HEK293, 2.5 min): > 10 µM
Cc1cc2c(cc1C(F)(F)F)NC(=O)CC(c1cccc(Br)c1)=N2	–	> 10 µM	> 10 µM	–
Cc1cc(-c2cccc(C3CC(=O)Nc4cc(NC(=O)Oc5ccccc5)ccc4N3)c2)cc(C)n1 (configuration not stated)	–	> 10 µM	> 10 µM	–
O=C(O)c1cc(F)cc(-c2cccc(-c3nc(-c4ccoc4)cc(C(F)(F)F)n3)c2)c1	–	–	–	EC50 [1]: 0.35 µM; EC50 [2]: 0.31 µM; EC50 [3]: 2.21 µM; EC50 [4]: 1.56 µM
Clc1ccccc1-c1cccc(-c2csc(-c3ccccc3)n2)c1	> 30 µM	> 30 µM	> 10 µM	EC50 ([3]; HEK293, 2.5 min): > 10 µM
Fc1ccc(-c2cccc(-c3csc(-c4ccccc4)c3)c2)cc1	> 10 µM	> 10 µM	> 10 µM	EC50 ([3]; HEK293, 2.5 min): > 10 µM
N#Cc1cccc(C2=Nc3ccc(Br)cc3NC(=O)C2)c1	–	> 30 µM	> 30 µM	–
c1ccc(-c2nc(-c3cccc(-c4ccco4)c3)nn2-c2ccccc2)cc1	> 10 µM	> 30 µM	> 30 µM	EC50 ([3]; HEK293, 2.5 min): 0.21 µM
Cc1cc(NC(=O)OC(C)(C)C)c(NC(=O)CC(=O)c2cccc(-n3ccc4ccccc43)c2)cc1C(F)(F)F	–	> 10 µM	> 10 µM	–
Cc1nc(-c2cccc(-c3ccc(F)cc3)c2)cs1	> 10 µM	> 10 µM	> 10 µM	EC50 ([3]; HEK293, 2.5 min): > 10 µM
Cc1cc2c(cc1C(F)(F)F)NC(=O)CC(c1cccc(OCc3ccccc3)c1)N2 (configuration not stated)	–	> 10 µM	–	–
Cc1cc2c(cc1C(F)(F)F)NC(=O)CC(c1cccc(Oc3ccccc3)c1)N2 (configuration not stated)	–	> 10 µM	> 10 µM	–
CC(C)(C)OC(=O)Nc1ccc(C(=O)OC(C)(C)C)cc1NC(=O)CC(=O)c1ccnc(C#N)c1	–	> 30 µM	–	–
Cc1cc2c(cc1C(F)(F)F)NC(=O)CC(c1cccc(C#Cc3ccccc3)c1)=N2	–	> 10 µM	> 10 µM	–
O=C1CC(c2ccnc(Br)c2)=Nc2ccc(-c3ccc(C(F)(F)F)cc3C(F)(F)F)cc2N1	–	–	> 10 µM	–
Cc1cc2c(cc1C(F)(F)F)NC(=O)CC(c1cccc(Oc3ncccn3)c1)N2 (racemic)	> 10 µM	–	–	–
O=C(O)c1ccccc1-c1cccc(-c2nc(-c3ccc(C(F)(F)F)nc3)cc(C(F)(F)F)n2)c1	–	> 10 µM	> 10 µM	–
O=C(O)c1cccc(-c2cccc(-c3coc(-c4ccccc4)n3)c2)c1	–	–	> 10 µM	–
Cc1cc2c(cc1C(F)(F)F)NC(=O)CC(c1cccc(Oc3cc(F)cc(F)c3)c1)=N2	–	> 10 µM	–	–
c1ccc(-c2cccc(-c3nc(-c4ccccc4)n(-c4ccccc4)n3)c2)cc1	> 10 µM	> 10 µM	–	–
Cc1cc2c(cc1C(F)(F)F)NC(=O)CC(c1cccc(C#C[Si](C)(C)C)c1)N2 (configuration not stated)	–	4.47 µM	4.53 µM	–
O=C(O)c1ccccc1-c1cccc(-c2nc(-c3ccccc3)n(-c3ccccc3)n2)c1	–	> 30 µM	> 10 µM	–
COc1ccc(-c2cccc(-c3nc(-c4ccco4)cc(C(F)(F)F)n3)c2)cc1C(=O)O	–	–	> 10 µM	–
O=C(O)c1cc(-c2cccc(-c3cnc(-c4ccccc4)s3)c2)ccc1F	–	–	> 10 µM	–
O=C1CC(c2cccc(Br)c2)Nc2ccc(NC(=O)OCc3ccccc3)cc2N1 (configuration not stated)	–	> 10 µM	–	–
O=C(O)c1cc(-c2ccc(-c3csc(-c4ccccc4)n3)cc2)ccc1F	–	> 30 µM	–	–
